This is an account of results in patent US20230364079A1, “COMPOUND AS BRAIN-PERMEABLE BTK OR HER2 INHIBITOR, PREPARATION METHOD THEREFOR, AND USE THEREOF” (CHENGDU HYPERWAY PHARMACEUTICALS CO., LTD., priority 2020, published 2023).

The term Cmax denotes the peak of the concentration-time curve. The term IC50 denotes the concentration that inhibits the measured activity by half. High values mean lower potency, low ones higher potency. The term bioavailability denotes the share of a dose that reaches the circulation, judged against a reference dose that is usually intravenous. What is called AUC(0-inf) is total exposure, with the tail of the curve extrapolated. Lower therefore signals low exposure.

The nature of data set [1]: Pharmacokinetic test, oral, SD rats. The data set is classed as in vivo. Particulars: oral 10 mg/kg, plasma; for half-life: read-out: T½ (converted). The method in brief:
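Male/female status unstated; SD rats (3 per group) dosed orally at 10 mg/kg after overnight fast, refed 4 h post-dose. Plasma from serial blood draws stored at -20° C, protein-precipitated with internal standard solution and quantified by LC-MS/MS.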

Data set [2] is described as follows: Liver microsome metabolic stability test, human. In kind it is in vitro ADME. The conditions noted are these: for half-life: liver microsomes, read-out: T½. The method in brief:
(§1)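 Test compound was incubated with rat or human liver microsomes (working solution 0.5 mg/mL protein) after a 10 min pre-incubation at 37 °C, and the reaction was started with an NADPH regenerating system; a no-NADPH control ran to 60 min. Samples were quenched with acetonitrile at 0–60 min and analysed by LC-MS/MS. T½ and CLint(mic) (µL/min/mg) come from first-order elimination kinetics.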

Data set [3] deals with BTK mutation-type C481S kinase (Homo sapiens (Human), UniProt Q06187, C481S). As to the kind of experiment: BTK-C481S kinase activity inhibition test in vitro (Caliper EZ Reader). In kind it is biochemical. The method in brief:
(§2)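 Compound (10 mM DMSO stock) preincubated with kinase 10 min at room temperature, then ATP plus kinase substrate 2 added, 10 min reaction at room temperature before stop. Substrate conversion read by Caliper mobility shift; inhibition normalised to no-enzyme and no-compound controls, IC50 by variable-slope log(inhibitor) fit.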

Data set [4] is described as follows: Liver microsome metabolic stability test, rat. Particulars: for half-life: liver microsomes, read-out: T½. The data set is classed as in vitro ADME. The method in brief: as §1
On the technique in general: Liver microsomes are a subcellular fraction often used to study metabolism.

Another data set concerns TMD8 cell proliferation. Briefly: In vitro cell proliferation inhibitory activity test (CTG), TMD8. The data set is classed as cell-based, human. Particulars: TMD8 cells, 72 h. The method, then: (§3) Test Example 4: In Vitro Cell Proliferation Inhibitory Activity Test
(§4) Cells were cultured in 1640 medium, added with 10% inactivated FBS and 1% double antibiotics, and cultured at 37° C. and 5% CO2.
(§5) (1) Cells were routinely cultured until the cell density was 80%-90%, and the cells were harvested when their number reached the requirement.
(§6) (2) Cells were resuspended with corresponding culture medium, counted, and prepared into cell suspension at appropriate density.
(§7) (3) The cell suspension was added to a 96-well plate, 100 µL per well.
(§8) (4) Cells were cultured overnight in a 37° C., 5% CO2 incubator.
(§9) (1) The compounds to be tested were diluted with DMSO to make a stock solution with a final concentration of 20 mM for later use.
(§10) (2) The stock solution was diluted 10 times from 20 mM to 2 mM with DMSO, and then diluted 3 times from 2 mM to 9 concentrations.
(§11) (3) The blank control wells were cells plus 0.5% DMSO, as high-reading control wells.
(§12) (4) Wells with no cells and only medium were used as low-reading control wells.
(§13) 4: Cell Treatment With Compound
(1) 24 h after the cells were plated, the compounds acted alone, and 99 µL of growth medium was added to each well, followed by 1 µL of the compound prepared in step 3. The plate was shaken gently to mix uniformly, and then placed in a 37° C., 5% CO2 incubator.
(2) The cell plate was placed in an incubator for 72 h.
5: Detection by CTG Method
(1) The cell plate to be tested was placed at room temperature for 30 min, and 100 µL of medium was discarded from each well.
(2) 100 µL of CTG reagent (CelltiterGlo kit) was added to each well, placed on a fast shaker for 2 min, and stood at room temperature in the dark for 30 min.
(§14) (3) The chemiluminescent signal value was read with the Envision instrument.
IC50 was calculated by using GraphPad Prism 8 software. The IC50 (half inhibitory concentration) of the compound was derived using the following nonlinear fitting formula, and the results are shown in the following table: […]

A further data set concerns the target BTK wild-type kinase (Homo sapiens (Human), UniProt Q06187). Briefly: BTK kinase activity inhibition test in vitro (Caliper EZ Reader). The data set is classed as biochemical. The method in brief: as §2
Data set [5] deals with TMD8 mouse subcutaneous xenograft tumor. Briefly: TMD8 pharmacodynamic model test (mouse subcutaneous xenograft tumor). In kind it is in vivo. The method, then:
Test Example 7: TMD8 Pharmacodynamic Model Test
Human diffuse large B-cell lymphoma TMD8 cells were monolayer-cultured in vitro in RPMI1640 medium with 10% fetal bovine serum, 100 U/mL penicillin and 100 µg/mL streptomycin, in a 37° C., 5% CO2 incubator. Routine digestion with trypsin-EDTA was performed twice a week for passaging. When the cell density was 80%-90% and the number reached the requirement, cells were harvested, counted and inoculated. 0.2 ml (1×10^7 cells) of TMD8 cells (added with matrigel at a volume ratio of 1:1) were subcutaneously inoculated on the right back of each mouse. The mice were administered in groups when the average tumor volume reached about 137 mm^3. Tumor diameters were measured twice a week with vernier calipers. The tumor volume was calculated by the formula V = 0.5 a × b^2, where a and b represent the long and short diameters of the tumor, respectively.

Data set [6] relates to DOHH-2-luc tumor cells in the mouse brain. As to the kind of experiment: DOHH-2-Luc intracerebral tumor drug efficacy model test. The data set is classed as in vivo. The protocol:
Test Example 8: DOHH-2-Luc Intracerebral Tumor Drug Efficacy Model Test
DOHH-2-luc tumor cells were cultured in vitro with RPMI 1640 medium containing 10% fetal bovine serum and 500 ng/mL puromycin in a 37° C., 5% CO2 incubator. […] Tumor cells in logarithmic growth phase were used for inoculation of tumors in vivo.
2. Inoculation of Tumor Cell and Grouping
After the animal was anesthetized by intramuscular injection of Zoletil, it was fixed on the operating table in a prone position. The skin on the top of the head was disinfected with iodine and 75% alcohol respectively, and the skin was cut about 0.5 cm along the midline of the head to expose the coronal and sagittal lines. Being located about 0.5-1.0 mm above the coronal line and about 2 mm to the right of the sagittal line by using a brain locator, a hole was drilled with a 1 mL syringe needle. The micro-injector was inserted vertically to a depth of 3 mm at the location, slowly (about 1 min) injected with 3 × 10^5 DOHH-2-luc tumor cells /2 µL suspension and kept for 1 min. After pulling out the needle, the needle hole was quickly sealed with bone wax, and the wound was sutured with a stapler. About the 7th day after tumor inoculation, the animals were randomly divided into 5 groups according to the body weight of the animals and the optical signal intensity of the tumor site, with 5 animals in each group.
The mice were imaged 1-2 times a week according to their state using the small animal in vivo imaging system IVIS Lumina III (Perkin Elmer). The bioluminescence imaging (BLI, unit: photons/s) signal intensity at the tumor cell inoculation site of mouse was monitored as the main indicator for evaluating tumor growth and drug efficacy. The specific operation is as follows:
The mice were intraperitoneally injected with D-luciferin (15 mg/mL, 5 µL/g according to the body weight of the experimental animal), and then inhaled anesthetized with 1%-2% isoflurane. 10 min after the injection of D-luciferin, the animals were imaged with IVIS Lumina III. The data were analyzed and processed using Living Image software (Perkin Elmer), and the optical signal intensity in ROI (regions of interest) of each animal was calculated.

A further data set has as its system BT474 cell proliferation. As to the kind of experiment: In vitro cell proliferation inhibitory activity test (CTG), BT474. In kind it is cell-based. The method, then:
as §3, §4, §5, §6, §7, §8, §9, §10, §11, §12, §13
(1) 24 h after the cells were plated, the compounds acted alone, and 99 µL of growth medium was added to each well, followed by 1 µL of the compound prepared in step 3. […]
as §14
IC50 was calculated by using GraphPad Prism 8 software. […]

For data set [7] the following is noted: dog PK experiments; cited from earlier work.
For data set [8] the following is noted: mice; cited from earlier work.

Like-named read-outs stand apart in the source and are kept apart here.

BTK wild-type kinase, sequence (Q06187 whole entry): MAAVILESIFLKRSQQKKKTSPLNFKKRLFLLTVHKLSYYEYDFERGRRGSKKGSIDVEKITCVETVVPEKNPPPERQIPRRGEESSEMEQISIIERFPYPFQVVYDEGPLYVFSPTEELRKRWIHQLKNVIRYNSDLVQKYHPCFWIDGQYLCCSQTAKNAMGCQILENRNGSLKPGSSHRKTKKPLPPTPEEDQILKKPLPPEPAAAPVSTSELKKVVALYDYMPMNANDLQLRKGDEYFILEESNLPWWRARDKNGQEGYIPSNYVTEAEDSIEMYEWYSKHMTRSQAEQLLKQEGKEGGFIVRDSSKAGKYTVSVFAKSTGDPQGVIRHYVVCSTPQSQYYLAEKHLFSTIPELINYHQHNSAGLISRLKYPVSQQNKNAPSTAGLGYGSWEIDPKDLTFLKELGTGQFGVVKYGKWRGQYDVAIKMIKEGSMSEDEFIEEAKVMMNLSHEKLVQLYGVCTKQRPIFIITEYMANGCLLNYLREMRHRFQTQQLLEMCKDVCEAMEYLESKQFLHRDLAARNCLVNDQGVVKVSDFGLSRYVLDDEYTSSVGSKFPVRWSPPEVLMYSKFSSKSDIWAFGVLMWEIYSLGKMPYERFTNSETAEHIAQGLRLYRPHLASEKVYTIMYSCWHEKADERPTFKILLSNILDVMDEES
BTK mutation-type C481S kinase, sequence (Q06187 whole entry C481S): as the sequence (Q06187 whole entry) above, with C481S counted along it

As for `Nc1nccn2c([C@@H]3CC[C@H](CO)OC3)nc(-c3ccc(C(=O)Nc4ccccn4)cc3)c12` (single isomer, unassigned) [Compound 2-A-P1], the “AUC(0-∞)” value in [1] is 77004 ng·h/mL. In addition, in data set [1], the “Cl” value worked out at 2.18 mL/min/kg. Moreover, the “Cmax” value in data set [1] was 25188 ng/mL. For the same compound, the “T½” value in [1] is 2.21 h; in data set [2] (0.5 mg/mL protein), >2.42 h; in [4] (0.5 mg/mL protein), >2.42 h. In addition, the “CLint” value in data set [2] and in [4] was <9.6 µL/min/mg each time. Besides, the results for the “%Remaining (60 min)” value in data set [2] and in [4] were 122.5% and 95.5%, respectively. The IC50 in data set [3] is < 5 nM; with TMD8 cell proliferation, 61.9 nM; on BTK wild-type kinase it was < 5 nM.

As for `Nc1nccn2c(C3CCC(CO)OC3)nc(-c3ccc(C(F)(F)c4ccccc4)cc3)c12` (single isomer, unassigned) [Compound 111-P1], the concentration for half-maximal inhibition (IC50) in data set [3] is < 5 nM; in the data set with TMD8 cell proliferation it was 71.9 nM; against BTK wild-type kinase, < 5 nM. Further, the “TGI (tumor inhibition rate)” value in data set [5] (20 mg/kg) was 93%. The “TGI relative to that of Tirabrutinib” value in data set [5] (20 mg/kg) is listed as ~2 times. The “inhibitory effect against the tumor compared with Tirabrutinib” value is “significantly better inhibitory effect against the tumor” in data set [5] (same dose of 20 mg/kg, FIG. 2) and “significantly better inhibitory effect against the tumor” in data set [6] (DOHH2 tumor model in the mouse brain, same dose of 30 mg/kg (BID), FIG. 3). For the same compound, the “tumor size in the brain by fluorescence image” value in [6] (DOHH-2-Luc intracerebral model, same dose, FIG. 4) is recorded as “very good inhibitory effect against the tumor”. Besides, the side effects entry in data set [6] (mouse, 30 mg/kg (BID), after 21 days of administration) is listed as “no side effects”.

Take `Nc1nccn2c(C3CCC(CO)OC3)nc(-c3ccc(C(F)(F)c4ccccc4)cc3)c12` (single isomer, unassigned) [Compound 111-P2]: the 50% inhibitory concentration (IC50) is 275 nM with TMD8 cell proliferation, 20 to 100 nM on BTK wild-type kinase and 2180 nM in the data set with BT474 cell proliferation.

As for `O=C(c1ccc(Oc2ccccc2)cc1Cl)c1c[nH]c2ncnc(N[C@@H]3CC[C@@H](CO)OC3)c12` [ARQ-531, reference compound], in [7], the bioavailability is reported as 38%. The “Cl” value in data set [1] was found to be 10.3 mL/min/kg. In addition, the AUC(0-inf) in data set [1] (rat) was determined as 16200 ng·h/mL. Moreover, the Cmax in data set [1] (rat, read-out: Cmax) was 2410 ng/mL. The figures for the half-life in data set [1] (rat), in [2] (0.5 mg/mL protein) and in data set [4] (0.5 mg/mL protein) were 3.98 h, > 2.42 h and > 2.42 h, respectively. Also, the results for the “%Remaining (60 min)” value in data set [2] and in [4] were 94.2% and 81.1%, respectively.

As to `Cc1cc(Nc2ncnc3ccc(NC4=NC(C)(C)CO4)cc23)ccc1Oc1ccn2ncnc2c1` [Tucatinib, reference compound], the “Cl” value in data set [1] worked out at 161.3 mL/min/kg. Also, the AUC(0-inf) in data set [1] (rat) worked out at 2270 ng·h/mL. The Cmax in data set [1] (rat, read-out: Cmax) worked out at 445 ng/mL. The half-life was 1.72 h in data set [1] (rat), 0.53 h in [2] (0.5 mg/mL protein) and 0.663 h in [4] (0.5 mg/mL protein). For the same compound, the “%Remaining (60 min)” value is listed as 28.8% in data set [2] and 38.2% in [4]. In addition, the brain permeability rate entry in [8] was “less than 5%”.
